These results are taken from US20030049287A1, “Catechol oximes and their use in cosmetic and dermatological preparations” (priority 1999, published 2003).

Molecules are shown by their SMILES.

The nature of data set [1]: Rancimat accelerated autoxidation of lipids by air, soybean oil. Conditions: antioxidative index = IP(with test solution)/IP(control sample), soybean oil purified over alumina, 0.05% test substance. The procedure: (§1) The activity of the illustrative compounds according to Examples 7 to 13 as antioxidants was compared with the conventional antioxidants and two examples from WO 95 01,157. The test system used was the accelerated autoxidation of lipids by air with or without antioxidant using the Rancimat apparatus (Rancimat is a registered trademark of Metrohm AG, Herisau, Switzerland).
(§2) The illustrative compounds, vitamin C, α-tocopherol and dibutyihydroxytoluene were dissolved in methanol or acetone and 100 μl of each test solution were added to a prepared oil sample of 3 g. In a control sample only solvent was added. A constant stream of dry air (20 l/h) was bubbled through the heated oil sample containing the test solution, and the volatile oxidation products (predominantly short-chain fatty acids such as formic acid or acetic acid) were collected in a receiver containing water. The conductivity of this aqueous solution was measured continuously and documented. The oxidation of (unsaturated) fats proceeds here only very slowly for a period of time and then suddenly increases greatly. The time to the increase is referred to as the induction period (IP).
(§3) The antioxidative index (AOI) was obtained according to the following equation:
(§4) AOI=IP(with test solution)/IP(control sample).

Data set [2] in a line: DPPH test, activity as free-radical scavenger. The following applies: DPPH 100 μmol/l in methanol, absorption at 515 nm. Format: biochemical. The procedure:
The activity of the illustrative compounds as in examples 7 to 13 as free-radical scavengers was compared with the conventional free-radical scavenger and two examples from WO 95 01,157. For this, the DPPH (1,1-diphenyl-2-picryl-hydrazyl) test was used to eliminate free radicals.
DPPH was dissolved in methanol to a concentration of 100 μmol/l. A series of dilutions of the illustrative compounds, vitamin C, α-tocopherol and dibutylhydroxytoluene were prepared in methanol. Methanol was used as the control. 2500 μl of the DPPH solution were mixed with 500 μl of each test solution, and the decrease in the absorption at 515 nm was read off until the decrease was less than 2% per hour. The activity of the test substances as free-radical scavengers was calculated according to the following equation:
Activity as free-radical scavenger (%)=100−(absorption of the test compounds)/(absorption of the control)×100.
The activity of the free-radical scavengers (%) in a series of dilutions of test compounds was used to calculate, for each test compound, the effective relative concentration EC50 (based on the initially present concentration of DPPH, EC=c (test compound)/c(DPPH)) of a test compound at which 50% of the DPPH free radical had been eliminated.
A general note: DPPH is a stable violet radical that fades when it is reduced.

Data set [3] is described as follows: Rancimat accelerated autoxidation of lipids by air, squalene. Conditions: antioxidative index = IP(with test solution)/IP(control sample), squalene purified over alumina, stabilized with 1 ppm α-tocopherol, 0.005% test substance. How it is done:
as §1, §2, §3, §4
The results for the experiment at 80° C. in squalene that was purified over alumina grade N and stabilized with 1 ppm of α-tocopherol are shown in table 4: […]

Consider `CC(=NO)c1ccc(O)c(O)c1` [Example 8, 3,4-Dihydroxyacetophenone oxime], for which the “AOI in soybean oil at 100° C. with 0.05% of test substance” value (shortened to “AOI … with 0.05% of test substance”) in data set [1] is 16.6. In addition, the “EC50 (effective relative concentration, c(test compound)/c(DPPH), at which 50% of the DPPH free radical had been eliminated)” value in data set [2] is on record as 0.073 mol/mol. The “AOI in squalene at 80° C. with 0.005% of test substance” value (“AOI … with 0.005% of test substance” for short) in data set [3] is 95.
Molecule `Cc1ccc(CON=Cc2ccc(O)c(O)c2)cc1` [Example 11, 3,4-Dihydroxybenzaldehyde O-(4-methylbenzyl)oxime] came in with a melting point of 85 to 86 °C. For the same molecule, the “AOI … with 0.05% of test substance” value in data set [1] came out at 14.1. In addition, the “EC50 (effective relative concentration, c(test compound)/c(DPPH), at which 50% of the DPPH free radical had been eliminated)” value in data set [2] was 0.131 mol/mol. For the same molecule, in data set [3], the “AOI … with 0.005% of test substance” value was found to be 50.
`CCON=Cc1ccc(O)c(O)c1` [Example 10, 3,4-Dihydroxybenzaldehyde O-ethyloxime] displayed a melting point below 23 °C. The “AOI … with 0.05% of test substance” value in data set [1] amounted to 17.3. Also, the “EC50 (effective relative concentration, c(test compound)/c(DPPH), at which 50% of the DPPH free radical had been eliminated)” value in data set [2] came out at 0.156 mol/mol. In addition, in data set [3], the “AOI … with 0.005% of test substance” value was determined as 85.
Consider `Cc1c(C)c2c(c(C)c1O)CC[C@@](C)(CCC[C@H](C)CCC[C@H](C)CCCC(C)C)O2` [α-Tocopherol, reference compound], for which the “AOI … with 0.05% of test substance” value in data set [1] is on record as 5.1. In data set [2], the “EC50 (effective relative concentration, c(test compound)/c(DPPH), at which 50% of the DPPH free radical had been eliminated)” value is 0.250 mol/mol. Also, in data set [3], the “AOI … with 0.005% of test substance” value is reported as 39.
In the same order, the values of `CC(=NO)c1ccccc1O` [o-Hydroxyacetophenone oxime, reference compound] are 0.9, above 3.0 mol/mol and 1.6.
With `Cc1cc(C(C)(C)C)c(O)c(C(C)(C)C)c1` [Dibutylhydroxytoluene, reference compound], the “AOI … with 0.05% of test substance” value in data set [1] is on record as 4.8. For the same molecule, in data set [2], the “EC50 (effective relative concentration, c(test compound)/c(DPPH), at which 50% of the DPPH free radical had been eliminated)” value is on record as 0.240 mol/mol. In addition, the “AOI … with 0.005% of test substance” value in data set [3] is reported as 38.
In the case of `ON=Cc1cc(O)c(O)c(O)c1` [Example 9, 3,4,5-Trihydroxybenzaldehyde oxime], the melting point is 177 °C (dec.). The “AOI … with 0.05% of test substance” value in data set [1] stood at 20.9. For the same molecule, the “EC50 (effective relative concentration, c(test compound)/c(DPPH), at which 50% of the DPPH free radical had been eliminated)” value in data set [2] came out at 0.090 mol/mol. Also, the “AOI … with 0.005% of test substance” value in data set [3] was 150.
Turning to `ON=Cc1ccc(O)c(O)c1` [Example 7, 3,4-Dihydroxybenzaldehyde oxime], the melting point was 143 °C (dec.). The “AOI … with 0.05% of test substance” value in data set [1] came to 15.8. Besides, the “EC50 (effective relative concentration, c(test compound)/c(DPPH), at which 50% of the DPPH free radical had been eliminated)” value in data set [2] came out at 0.053 mol/mol. In data set [3], the “AOI … with 0.005% of test substance” value was 70.
With `CCON=Cc1cc(O)c(O)c(O)c1` [Example 13, 3,4,5-Trihydroxybenzaldehyde O-ethyloxime], the melting point was 80 °C. Moreover, the “AOI … with 0.05% of test substance” value in data set [1] is recorded as 17.2. In addition, the “EC50 (effective relative concentration, c(test compound)/c(DPPH), at which 50% of the DPPH free radical had been eliminated)” value in data set [2] came to 0.132 mol/mol. Moreover, the “AOI … with 0.005% of test substance” value in data set [3] turned out to be 126.
Consider `CCON=C(C)c1ccc(O)c(O)c1` [Example 12, 3,4-Dihydroxyacetophenone O-ethyloxime], for which the “AOI … with 0.05% of test substance” value in data set [1] amounted to 15.2. The “EC50 (effective relative concentration, c(test compound)/c(DPPH), at which 50% of the DPPH free radical had been eliminated)” value in data set [2] was determined as 0.298 mol/mol. In data set [3], the “AOI … with 0.005% of test substance” value was determined as 65.
For `O=C1O[C@H]([C@@H](O)CO)C(O)=C1O` [Vitamin C, reference compound], the “AOI … with 0.05% of test substance” value in data set [1] came out at 1.2. For the same molecule, the “EC50 (effective relative concentration, c(test compound)/c(DPPH), at which 50% of the DPPH free radical had been eliminated)” value in data set [2] came to 0.270 mol/mol. Moreover, the “AOI … with 0.005% of test substance” value in data set [3] stood at 0.7.

As a reminder, the melting point is the temperature, or range, at which the solid turns liquid.
